In brackets after ≈: the same amount, converted by molar mass. Where a name gives a salt, the structure may show the parent alone. Read-outs that look alike come from different tables or passages of the source.
Legend:
[1] = tested on: S. aureus ATCC 25923; experiment: microbe, parasite or virus in culture; format: cell-based, Staphylococcus aureus; details: read-out: Minimal inhibitory concentration (MIC)
Experimental: (§1) Bacteria. Staphylococcus aureus ATCC 25923, Pseudomonas aeruginosa ATCC 27853, Escherichia coli ATCC 25922 and Staphylococcus aureus ATCC 43300 were cultivated on tryptone - soy agar (TSA; Oxoid). Klebsiella pneumoniaeATCC 13882, Bordetella bronchiseptica ATCC 4617, Acinetobacter baumannii ATCC 19606 were cultivated onto nutrient agar (Difco). Escherichia coli ATCC BAA-198 was cultivated on TSA with ceftazidime (10 µg/mL or 15.7 μM; Sigma). All strains were incubated during 24 hrs at 37 °C.
(§2) Medium. Mueller – Hinton Broth (Oxoid) was supplemented with cations: 12.5 mg Mg ^++/L and25 mg Ca^++/L. The pH of the medium after sterilization is between 7.2 and 7.4 [cation–adjusted Mueller – Hinton Broth” (CAMHB)].
(§3) Reference method. Broth microdilution susceptibility test was performed as described in […] reference method M7-A7 (2). A series of the twofold dendrimers dilutions in DMSO and twofold polymyxin B and penicillin G dilutions in CAMHB were diluted […] with CAMHB. Aliquots (95 µL) were dispensed into microdilution sterile plates (Mar-Four). Then, bacteria inoculum (5 µL) containing 5 × 10^4 CFU/mL were added. The final concentration of dendrimers ranged from 128 to 2 µg/mL [or 105 to 1.6 μM for an average molecular mass for 7 series (1213) and 61 to 0.9 μM for an average molecular mass for 10 series(2,103)], polymyxin B and penicillin G from 8 – 0.15 µg /mL (or 5.8 to 0.1 μM and 21.5 to 0.4 μM, respectively for polymyxin B and penicillin G), all in twofold dilution steps. The plates were incubated at 35 °C and read after 18 or 24 hours depending on bacterial strain. MICs (Minimal Inhibitory Concentration) was defined as the lowest drug concentration that reduced growth by 100%.

[2] = tested on: E.coli ATCC 25922; format: cell-based, Escherichia coli
Experimental: as §1, §2, §3

[3] = tested on: K. pneumoniae ATCC 13882; format: cell-based, Klebsiella pneumoniae; details: ATCC 13882, 24 h
Experimental: as §1, §2, §3

[4] = tested on: A. baumani ATCC 19606; format: cell-based, Acinetobacter baumannii; details: ATCC 19606, 24 h
Experimental: as §1, §2, §3

[5] = tested on: C. albicans ATCC 90028; format: cell-based, Candida albicans; details: ATCC 90028, 48 h, pH 7
Experimental: (§4) Yeasts: Candida albicans ATCC 90028, Candida parapsilosis ATCC 22019 and Candida krusei ATCC 6258 were cultivated onto Sabouraud dextrose agar (Difco) during 24 hrs at 35 °C.
(§5) Medium: RPMI – 1640 (Sigma) supplemented with 0.2% (wt/vol) glucose, 0.3 g/L L-glutamine, 0.0053 g/L phenol red, buffered with morpholinopropanesulfonic acid (MOPS; Sigma) at a final concentration of 0.165 M and adjusted to pH 7.0 was prepared.
(§6) Reference Method: The broth microdilution susceptibility test was performed as described in Clinical and Laboratory Standards Institute (CLSI) reference method M27 – A2 (1). A series of the twofold dendrimers and amphotericin B dilutions in DMSO were diluted 1:49 with RPMI.

[6] = tested on: C. parapsilosis ATCC 22019; format: cell-based, Candida parapsilosis; details: ATCC 22019, 48 h, pH 7
Experimental: as §4, §5, §6

[7] = tested on: B. bronchiseptica ATCC 4617; format: cell-based, Bordetella bronchiseptica; details: ATCC 4617, 24 h
Experimental: as §1, §2, §3

[8] = tested on: P. aeruginosa ATCC 27853; format: cell-based, Pseudomonas aeruginosa; details: ATCC 27853, 24 h
Experimental: as §1, §2, §3

[9] = tested on: E. coli ATCC BAA-198; format: cell-based, Escherichia coli; details: ATCC BAA-198, 24 h
Experimental: as §1, §2, §3

[10] = tested on: C. krusei ATCC 6258; experiment: microbe, parasite or virus in culture; format: cell-based, Candida krusei; details: read-out: Minimal inhibitory concentration (MIC)
Experimental: as §4, §5, §6

[11] = tested on: S. aureus ATCC 43300; format: cell-based, Staphylococcus aureus; details: ATCC 43300, 24 h
Experimental: as §1, §2, §3

[12] = S. aureus ATCC 25923, broth microdilution CLSI M7-A7, CAMHB pH 7.2-7.4, 35 °C, read after 18 or 24 h, MIC = lowest concentration that reduced growth by 100%
[13] = E. coli ATCC 25922, broth microdilution CLSI M7-A7, CAMHB, 35 °C, read after 18 or 24 h, 100% growth reduction

| SMILES | MIC [1, 12] [µM] | Minimal inhibitory concentration (MIC) [2, 13] [µM] | Minimal inhibitory concentration (MIC) [3] [µM] | Minimal inhibitory concentration (MIC) [4] [µM] | MIC ([1]; ATCC 25923, 24 h, pH 7.2) [µM] | Minimal inhibitory concentration (MIC) [5] [µM] | Minimal inhibitory concentration (MIC) [6] [µM] | Minimal inhibitory concentration (MIC) [7] [µM] | Minimal inhibitory concentration (MIC) [8] [µM] | Minimal inhibitory concentration (MIC) [9] [µM] | Minimal inhibitory concentration (MIC) ([2]; ATCC 25922, 24 h) [µM] | MIC ([10]; ATCC 6258, 48 h, pH 7) [µM] | Minimal inhibitory concentration (MIC) [11] [µM] | MIC ([1]; Staphylococcus aureus, ATCC25923, S. aureus ATCC 25923, broth microdilution CLSI M7-A7, CAMHB pH 7.2-7.4, 35 °C, read after 18 or 24 h, MIC = lowest concentration that reduced growth by 100%) [µM] | MIC ([10]; Pichia kudriavzevii, ATCC6258, C. krusei ATCC 6258, broth microdilution CLSI M27-A2, RPMI-1640 with MOPS pH 7.0, 35 °C, read after 24 and 48 h, 100% growth reduction) [µM] |
| --- | --- | --- | --- | --- | --- | --- | --- | --- | --- | --- | --- | --- | --- | --- | --- |
| NCCCN(CCCN)CCC[C@@H](CO)N(CCCN)CCCN [Compound 5c, N,N’,N,N’-tetrakis(3-aminopropyl)-L-α,δ-diaminopentanol] | 113 (≈ 39.2 µg/mL) | >226 | – | – | – | – | – | – | – | – | – | – | – | – | – |
| NCCCN(CCCN)CCCC[C@@H](CO)N(CCCN)CCCN [Compound 5d, N,N’,N,N’-tetrakis(3-aminopropyl)-L-α,ε-diaminohexanol] | 221 (≈ 79.7 µg/mL) | >221 | – | – | – | – | – | – | – | – | – | – | – | – | – |
| CC1(C)S[C@@H]2[C@H](NC(=O)Cc3ccccc3)C(=O)N2[C@H]1C(=O)O [Penicillin G, reference compound] | – | – | – | – | – | – | – | – | – | – | – | – | – | 6.6 (≈ 2.21 µg/mL) | – |
| C[C@@H]1[C@H](O)[C@@H](C)/C=C/C=C/C=C/C=C/C=C/C=C/C=C/[C@H](O[C@@H]2O[C@H](C)[C@@H](O)[C@H](N)[C@@H]2O)C[C@@H]2O[C@](O)(C[C@@H](O)C[C@@H](O)[C@H](O)CC[C@@H](O)C[C@@H](O)CC(=O)O[C@H]1C)C[C@H](O)[C@H]2C(=O)O [amphotericin B, reference compound] | – | – | – | – | – | – | – | – | – | – | – | – | – | – | 1.1 (≈ 1.02 µg/mL) |

Other lines, results leading:

| MIC [1, 12] [µM] | Minimal inhibitory concentration (MIC) [2, 13] [µM] | Minimal inhibitory concentration (MIC) [3] [µM] | Minimal inhibitory concentration (MIC) [4] [µM] | MIC ([1]; ATCC 25923, 24 h, pH 7.2) [µM] | Minimal inhibitory concentration (MIC) [5] [µM] | Minimal inhibitory concentration (MIC) [6] [µM] | Minimal inhibitory concentration (MIC) [7] [µM] | Minimal inhibitory concentration (MIC) [8] [µM] | Minimal inhibitory concentration (MIC) [9] [µM] | Minimal inhibitory concentration (MIC) ([2]; ATCC 25922, 24 h) [µM] | MIC ([10]; ATCC 6258, 48 h, pH 7) [µM] | Minimal inhibitory concentration (MIC) [11] [µM] | MIC ([1]; Staphylococcus aureus, ATCC25923, S. aureus ATCC 25923, broth microdilution CLSI M7-A7, CAMHB pH 7.2-7.4, 35 °C, read after 18 or 24 h, MIC = lowest concentration that reduced growth by 100%) [µM] | MIC ([10]; Pichia kudriavzevii, ATCC6258, C. krusei ATCC 6258, broth microdilution CLSI M27-A2, RPMI-1640 with MOPS pH 7.0, 35 °C, read after 24 and 48 h, 100% growth reduction) [µM] | SMILES |
| --- | --- | --- | --- | --- | --- | --- | --- | --- | --- | --- | --- | --- | --- | --- | --- |
| – | – | >89 | >89 | 2.8 | >88 | 88 | 11 | 24.3 | >88 | 11.8 | 44 | 11.8 | – | – | NCCCC[C@H](NC(=O)OCc1ccccc1Cl)C(=O)NCCCN[C@@H](CN(CCCNC(=O)[C@H](CCCCN)NC(=O)OCc1ccccc1Cl)CCCNC(=O)[C@H](CCCCN)NC(=O)OCc1ccccc1Cl)C(=O)NCc1ccccc1 [Compound 7e, N,N,N’-tris[(N^α-2-chlorobenzyloxycarbonyl)-L-lysil-3-aminopropyl]-L-diaminoalanine benzylamide pentahydrochloride] |
| – | – | >88 | >88 | 11.7 | >89 | 89 | 11 | 48 | >89 | 48 | 44 | 10.3 | – | – | NCCCC[C@H](NC(=O)OCc1ccccc1Cl)C(=O)NCCCN[C@@H](CCN(CCCNC(=O)[C@H](CCCCN)NC(=O)OCc1ccccc1Cl)CCCNC(=O)[C@H](CCCCN)NC(=O)OCc1ccccc1Cl)C(=O)NCc1ccccc1 [Compound 7f, N,N,N’-tris[(N^α-2-chlorobenzyloxycarbonyl)-L-lysil-3-aminopropyl]-L-diaminobutyro benzylamide pentahydrochloride] |
| – | – | >86 | >86 | 21.6 | >86 | 86 | 5.4 | 86 | 43 | 86 | 43 | 21.6 | – | – | NCCCC[C@H](NC(=O)OCc1ccccc1Cl)C(=O)NCCCN[C@@H](CCCCN(CCCNC(=O)[C@H](CCCCN)NC(=O)OCc1ccccc1Cl)CCCNC(=O)[C@H](CCCCN)NC(=O)OCc1ccccc1Cl)C(=O)NCc1ccccc1 [Compound 7h, N,N,N’-tris[(N^α-2-chlorobenzyloxycarbonyl)-L-lysil-3-aminopropyl]-L-lysine benzylamide penta-hydrochloride] |
| – | – | >55 | 13.8 | 1.7 | 6.8 | 6.8 | 3.4 | 30.2 | 6.9 | 7.3 | 6.8 | 3.4 | – | – | NCCCC[C@H](NC(=O)OCc1ccccc1Cl)C(=O)N[C@@H](Cc1ccccc1)C(=O)NCCCN(CCCNC(=O)[C@H](Cc1ccccc1)NC(=O)[C@H](CCCCN)NC(=O)OCc1ccccc1Cl)C[C@@H](CO)N(CCCNC(=O)[C@H](Cc1ccccc1)NC(=O)[C@H](CCCCN)NC(=O)OCc1ccccc1Cl)CCCNC(=O)[C@H](Cc1ccccc1)NC(=O)[C@H](CCCCN)NC(=O)OCc1ccccc1Cl [Compound 10a, N,N',N,N’-tetrakis[(N^α-2-chlorobenzyloxycarbonyl)-L-lysil-L-phenylalanyl-3-aminopropyl]-L-α,δ-diaminopropanol hexahydrochloride] |
| – | – | >55 | 13.8 | 1.3 | 6.9 | 6.9 | 3.4 | 47 | 6.9 | 7.3 | 6.9 | 7.3 | – | – | NCCCC[C@H](NC(=O)OCc1ccccc1Cl)C(=O)N[C@@H](Cc1ccccc1)C(=O)NCCCN(CCCNC(=O)[C@H](Cc1ccccc1)NC(=O)[C@H](CCCCN)NC(=O)OCc1ccccc1Cl)CC[C@@H](CO)N(CCCNC(=O)[C@H](Cc1ccccc1)NC(=O)[C@H](CCCCN)NC(=O)OCc1ccccc1Cl)CCCNC(=O)[C@H](Cc1ccccc1)NC(=O)[C@H](CCCCN)NC(=O)OCc1ccccc1Cl [Compound 10b, N,N',N,N’-tetrakis[(N^α-2-chlorobenzyloxycarbonyl)-L-lysil-L-phenylalanyl-3-aminopropyl]-L-α,δ-diaminobutanol hexahydrochloride] |
